Experimental data reported in PubChem BioAssay (NCI).
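Method: 48-hour compound exposure of cells in 96-well plates, five concentrations, linear interpolation of endpoints. GI50 = concentration required for 50% inhibition of growth. TGI is the concentration that stops growth completely.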

Key:
Assay in all cases: NCI anticancer screen, dose series, 48 h
HL-60(TB) leukemia = system: HL-60(TB) leukemia
HOP-62 NSCLC = system: HOP-62 NSCLC
IGROV1 ovarian = system: IGROV1 ovarian
K-562 leukemia = system: K-562 leukemia
NCI-H226 lung = system: NCI-H226 lung
NCI/ADR-RES ovarian = system: NCI/ADR-RES ovarian
OVCAR-3 ovarian = system: OVCAR-3 ovarian
OVCAR-5 ovarian = system: OVCAR-5 ovarian
SF-295 CNS = system: SF-295 CNS
UO-31 renal = system: UO-31 renal

| Structure (SMILES) | TGI (HL-60(TB) leukemia) [µM] | TGI (HOP-62 NSCLC) [µM] | TGI (IGROV1 ovarian) [µM] | TGI (K-562 leukemia) [µM] | TGI (NCI-H226 lung) [µM] | TGI (NCI/ADR-RES ovarian) [µM] | TGI (OVCAR-3 ovarian) [µM] | TGI (OVCAR-5 ovarian) [µM] | TGI (SF-295 CNS) [µM] | TGI (UO-31 renal) [µM] | GI50 (HL-60(TB) leukemia) [µM] | GI50 (IGROV1 ovarian) [µM] | GI50 (K-562 leukemia) [µM] | GI50 (NCI-H226 lung) [µM] | GI50 (NCI/ADR-RES ovarian) [µM] | GI50 (OVCAR-3 ovarian) [µM] | GI50 (OVCAR-5 ovarian) [µM] | GI50 (SF-295 CNS) [µM] | GI50 (UO-31 renal) [µM] | GI50 (HOP-62 NSCLC) [µM] |
| --- | --- | --- | --- | --- | --- | --- | --- | --- | --- | --- | --- | --- | --- | --- | --- | --- | --- | --- | --- | --- |
| O=Nn1c2ccccc2c2ccccc21 | > 100 | > 100 | > 100 | > 100 | > 100 | > 100 | > 100 | > 100 | > 100 | > 100 |  |  |  |  |  |  |  |  |  |  |
| CCOC(=O)CCCc1cc(=O)c2c(C)c3[nH]c4ccc(Cl)cc4c3c(C)c2[nH]1 | 82.3 | 44.4 | 86.4 | 79.6 | 61 | 66.2 | 34.4 | > 100 | 67 | 45.4 |  |  |  |  |  |  |  |  |  |  |
| CC(=O)OC/C=C\Cn1ncc(=O)[nH]c1=O | 30.1 | 43.9 | 42.5 | 54.9 | 36 | 50.6 | 69.3 | 32.3 |  | 37.5 |  |  |  |  |  |  |  |  |  |  |
| Nc1ccc(C2(c3ccc(N)cc3)C3CC4CC(C3)CC2C4)cc1 | 46.6 | 29.3 | 24.1 | 47.4 | 45.1 | 23.4 | 25.1 | 32.7 | 20.3 | 33.9 |  |  |  |  |  |  |  |  |  |  |
| CC=C/C=C/[C@@H]1O[C@](O)([C@H](CC)C(=O)NC/C=C/C=C(\C)[C@@H](OC)[C@@H](C)[C@@H]2O[C@H](/C=C/C=C/C=C(\C)C(=O)c3c(O)cc[nH]c3=O)[C@H](O)[C@@H]2O)[C@H](O)[C@H](O)C1(C)C | > 100 | > 100 | > 100 | > 100 |  | > 100 | > 100 | > 100 | > 100 | > 100 |  |  |  |  |  |  |  |  |  |  |
| Fc1ccc(C2CC(c3cccc(Nc4ccncc4)c3)=NN2c2ccccc2)cc1 (configuration not stated) | 4.49 |  | 3.49 | 6.86 | 8.78 | 3.13 | 3.24 | 5.27 | 3.16 | 2.86 | 2.08 | 1.8 | 2.42 | 2.48 | 1.65 | 1.75 | 2.18 | 1.74 | 1.45 |  |
| Nc1nc(N)c(N=Nc2ccccc2)c(=O)[nH]1 | > 100 | > 100 | > 100 | > 100 | > 100 |  | > 100 | > 100 | > 100 | > 100 |  |  |  |  |  |  |  |  |  |  |
| CCOP(=O)(OCC)C(Cc1c[nH]c2ccccc12)C(=O)O (configuration not stated) | > 100 | > 100 | > 100 | > 100 | > 100 | > 100 | > 100 | > 100 | > 100 | > 100 |  |  |  |  |  |  |  |  |  |  |
| O=S1(=O)C[C@H](NCc2ccccc2)[C@H](NCc2ccccc2)C1 |  | > 100 | > 100 | > 100 | > 100 | > 100 | > 100 | > 100 | > 100 | > 100 |  |  |  |  |  |  |  |  |  |  |
| COc1ncnc2c(Cl)c(C(O)c3ccccc3)c(Cl)cc12 (configuration not stated) | > 100 | 32.5 | > 100 | 69.3 |  | > 100 | > 100 | > 100 | 68.2 | > 100 |  |  |  |  |  |  |  |  |  |  |
| Cc1ccc(S(=O)(=O)NCCCSCCN)cc1 | > 100 |  |  | > 100 | > 100 | > 100 | > 100 |  | > 100 | > 100 |  |  |  |  |  |  |  |  |  |  |
| COc1ccc(/C=C/c2cc(O)cc(OC3OC(CO)C(O)C(O)C3O)c2)cc1O (configuration not stated) | > 100 | > 100 | > 100 | > 100 | > 100 | > 100 | > 100 | > 100 | > 100 | > 100 |  |  |  |  |  |  |  |  |  |  |
| OCC1NC(CO)C(O)C1O (configuration not stated) | > 100 | > 100 | > 100 | > 100 | > 100 | > 100 | > 100 | > 100 | > 100 | > 100 |  |  |  |  |  |  |  |  |  |  |
| O=C(Nc1ccc(C(F)(F)F)cc1[N+](=O)[O-])C(=O)Nn1c(=S)[nH]c2ccccc2c1=O | > 100 | > 100 | > 100 | > 100 | > 100 |  |  | > 100 | > 100 | > 100 |  |  |  |  |  |  |  |  |  |  |
| CC(C)N(CCNc1nc(C(Cl)(Cl)Cl)nc2cc(Cl)ccc12)C(C)C | 3.6 | 3.12 |  |  | 3.57 | 3.39 | 3.66 | 2.48 | 3.66 |  | 1.52 |  |  | 1.68 | 1.54 | 1.68 | 1.16 | 1.73 |  | 1.6 |
